# Measured values: patent US7998965B2, “Glutamate aggrecanase inhibitors” (Wyeth LLC, priority 2005, dated 2011)
# Read-outs that look alike come from different tables or passages of the source.
# How the values were obtained:
# [1] = target: T1, purified recombinant human Aggrecanase-1 (rAgg1) (Homo sapiens, UniProt O75173); test: In vitro fluorescence screen for Aggrecanase-1 inhibitors; assay type: biochemical; conditions: for IC50: read-out: Agg1 IC50
# T1 sequence (O75173 213-837): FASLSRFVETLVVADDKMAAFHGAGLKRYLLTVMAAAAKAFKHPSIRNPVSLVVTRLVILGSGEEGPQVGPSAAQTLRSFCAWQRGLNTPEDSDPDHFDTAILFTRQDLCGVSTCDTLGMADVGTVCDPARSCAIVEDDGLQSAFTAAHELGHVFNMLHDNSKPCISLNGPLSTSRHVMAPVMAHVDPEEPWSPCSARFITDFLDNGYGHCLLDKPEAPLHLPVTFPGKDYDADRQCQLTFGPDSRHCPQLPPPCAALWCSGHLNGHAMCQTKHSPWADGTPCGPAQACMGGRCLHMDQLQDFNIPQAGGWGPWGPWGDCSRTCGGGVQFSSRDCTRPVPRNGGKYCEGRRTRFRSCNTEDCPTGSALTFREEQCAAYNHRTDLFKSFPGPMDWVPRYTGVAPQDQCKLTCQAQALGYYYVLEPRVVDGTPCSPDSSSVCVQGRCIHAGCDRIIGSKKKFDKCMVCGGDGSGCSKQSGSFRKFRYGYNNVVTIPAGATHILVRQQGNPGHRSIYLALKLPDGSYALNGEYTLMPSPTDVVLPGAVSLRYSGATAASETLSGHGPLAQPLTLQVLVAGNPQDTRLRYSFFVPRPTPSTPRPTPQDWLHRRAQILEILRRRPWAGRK
# [2] = target: T2, purified recombinant human Aggrecanase-2 (Ag2t-Phe628-Strep) (Homo sapiens, UniProt Q9UNA0); test: In vitro fluorescence screen for Aggrecanase-2 inhibitors; assay type: biochemical; conditions: for IC50: read-out: Agg 2 IC50
# T2 construct: the form used is denoted as Ag2t-Phe628-Strep (MW=41,737)
# T2 sequence (Q9UNA0 262-628): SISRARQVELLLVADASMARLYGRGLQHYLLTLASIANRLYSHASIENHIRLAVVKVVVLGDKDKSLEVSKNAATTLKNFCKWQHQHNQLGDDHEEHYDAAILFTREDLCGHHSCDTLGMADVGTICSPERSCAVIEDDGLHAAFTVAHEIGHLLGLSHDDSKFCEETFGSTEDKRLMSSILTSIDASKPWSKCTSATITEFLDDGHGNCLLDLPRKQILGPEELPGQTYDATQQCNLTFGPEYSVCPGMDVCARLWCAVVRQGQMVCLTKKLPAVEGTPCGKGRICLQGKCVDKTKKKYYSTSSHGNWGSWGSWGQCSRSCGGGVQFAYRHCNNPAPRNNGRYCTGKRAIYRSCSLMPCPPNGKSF
structure (smiles),measurement,setting,value
"COc1cc(COc2cccc(-c3ccc(C(=O)N[C@@H](CCC(=O)O)C(=O)NCc4cc(OC)c(OC)c(OC)c4)cc3)c2)cc(OC)c1 [Example 15L, N^2-({3′-[(3,5-dimethoxybenzyl)oxy]biphenyl-4-yl}carbonyl)-N-(3,4,5-trimethoxybenzyl)-L-α-glutamine]",IC50,[1]; Table 3,47 nM
same,IC50,[2]; Table 3,413 nM
"Cc1cccc(CNC(=O)[C@H](CCC(=O)O)NC(=O)c2ccc(-c3ccc4c(c3)OCO4)cc2)c1 [Example 17NN, N^2-[4-(1,3-benzodioxol-5-yl)benzoyl]-N-(3-methylbenzyl)-L-α-glutamine]",IC50,[1]; Table 2,200 nM
same,IC50,[2]; Table 2,729 nM
"COc1cc(CNC(=O)[C@H](CCC(=O)O)NC(=O)c2ccc(-c3cccc(C(=O)O)c3)cc2)cc(OC)c1OC [Example 17D, 4′-{[((1S)-3-carboxy-1-{[(3,4,5-trimethoxybenzyl)amino]carbonyl}propyl)amino]carbonyl}biphenyl-3-carboxylic acid]",IC50,[1]; Table 2,> 17000 nM
same,IC50,[2]; Table 2,> 200000 nM
"C[C@H](NC(=O)[C@H](CCC(=O)O)NC(=O)c1ccc2c(c1)Cc1ccccc1-2)c1ccccc1 [Example 8QQQQQ, N^2-(9H-fluoren-2-ylcarbonyl)-N^1-[(1S)-1-phenylethyl]-L-α-glutamine]",IC50,[1]; Table 2,108 nM
same,IC50,[2]; Table 2,1160 nM
"CC(C)(Cc1ccc(Cl)cc1)NC(=O)[C@H](CCC(=O)O)NC(=O)c1ccc(-c2cccs2)cc1 [Example 8XXXXXXX, N-[2-(4-chlorophenyl)-1,1-dimethylethyl]-N^2-[4-(2-thienyl)benzoyl]-L-α-glutamine]",IC50,[1]; Table 3,< 30 nM
same,Ki,"[1]; Table 3, read-out: Ki Agg1",4.5 nM
same,IC50,[2]; Table 3,20 to 70 nM
same,Ki,"[2]; Table 3, read-out: Ki Agg2",56 nM
"CC(=O)c1ccc(-c2ccc(C(=O)N[C@@H](CCC(=O)O)C(=O)NC(C)(C)Cc3ccc(Cl)cc3)cc2)s1 [N^2-[4-(5-acetyl-2-thienyl)benzoyl]-N-[2-(4-chlorophenyl)-1,1-dimethylethyl]-L-α-glutamine]",IC50,[1]; Table 3,2400 nM
same,inhibition at 7.4 µM,[2]; read-out: Agg 2 % at concentration,50%
"O=C(O)CC[C@H](NC(=O)c1ccc(-c2ccc3ccccc3c2)cc1)C(=O)NCc1ccccc1 [Example 12F, N-benzyl-N^2-[4-(2-naphthyl)benzoyl]-L-α-glutamine]",IC50,[1]; Table 2,~3000 nM
same,IC50,[2]; Table 2,3000 to 8000 nM
"O=C(O)CC[C@H](NC(=O)C1c2ccccc2-c2ccccc21)C(=O)NCCCCCCO [Example 8UUUU, N^2-(9H-fluoren-9-ylcarbonyl)-N^1-(6-hydroxyhexyl)-L-α-glutamine]",IC50,[1]; Table 2,> 17000 nM
same,IC50,[2]; Table 2,~67000 nM
"CCOc1ccccc1-c1ccc(C(=O)N[C@@H](CCC(=O)O)C(=O)NCc2ccccc2)cc1 [Example 13E, N^1-benzyl-N^2-[(2′-ethoxy-1,1′-biphenyl-4-yl)carbonyl]-L-α-glutamine]",IC50,[1]; Table 1,~25000 nM
"O=C(O)CC[C@H](NC(=O)c1ccc(-c2ccccc2)cc1)C(=O)NCCN1CCOCC1 [Example 8DDD, N^2-(biphenyl-4-ylcarbonyl)-N^1-(2-morpholin-4-ylethyl)-L-α-glutamine]",IC50,[1]; Table 1,300 nM
"O=C(O)CC[C@H](NC(=O)c1ccc2c(c1)Cc1ccccc1-2)C(=O)NCCCCCCO [Example 8VVVVVV, N^2-(9H-fluoren-2-ylcarbonyl)-N^1-(6-hydroxyhexyl)-L-α-glutamine]",IC50,[1]; Table 1,46 nM
"CCCOc1ccc(-c2ccc(C(=O)N[C@@H](CCC(=O)O)C(=O)NCc3ccccc3)cc2)cc1 [Example 15A, N^1-benzyl-N^2-[(4′-propoxy-1,1′-biphenyl-4-yl)carbonyl]-L-α-glutamine]",IC50,[1]; Table 1,> 22000 nM
"CC(C)(Cc1ccccc1)NC(=O)[C@H](CCC(=O)O)NC(=O)c1cccc(-c2cccs2)c1 [N-(1,1-dimethyl-2-phenylethyl)-N^2-[3-(2-thienyl)benzoyl]-L-α-glutamine]",IC50,[1]; Table 3,> 8300 nM
"CC(C)(Cc1ccc(F)cc1)NC(=O)[C@@H](CCC(=O)O)NC(=O)c1ccc(-c2ccccc2)cc1 [Example 8FFFF, N^2-(biphenyl-4-ylcarbonyl)-N^1-[2-(4-fluorophenyl)-1,1-dimethylethyl]-D-α-glutamine]",IC50,[1]; Table 1,3600 nM
"O=C(O)CC[C@H](NC(=O)c1ccc2ccccc2c1)C(=O)NCCCc1ccccc1 [Example 8RRRRRR, N^2-2-naphthoyl-N^1-(3-phenylpropyl)-L-α-glutamine]",IC50,[1]; Table 1,3600 nM
"CC(C)(CO)NC(=O)[C@H](CCC(=O)O)NC(=O)c1ccc(-c2ccccc2)cc1 [Example 6B, N^2-(biphenyl-4-ylcarbonyl)-N^1-(2-hydroxy-1,1-dimethylethyl)-L-α-glutamine]",IC50,[1]; Table 1,300 nM
"O=C(O)CC[C@H](NC(=O)c1ccc(-c2ccccc2)cc1)C(=O)Nc1ccccc1Cc1ccccc1 [Example 8QQQQQQ, N^1-(2-benzylphenyl)-N^2-(1,1′-biphenyl-4-ylcarbonyl)-L-α-glutamine]",IC50,[1]; Table 1,690 nM
"O=C(O)CC[C@H](NC(=O)c1ccc(-c2ccccc2)cc1)C(=O)NCc1cccc(F)c1 [Example 8XX, N^2-(1,1′-biphenyl-4-ylcarbonyl)-N^1-(3-fluorobenzyl)-L-α-glutamine]",IC50,[1]; Table 1,300 nM
"Cc1cc(C)cc(-c2ccc(C(=O)N[C@@H](CCC(=O)O)C(=O)NCc3ccccc3)o2)c1 [Example 21B, N^1-benzyl-N^2-[5-(3,5-dimethylphenyl)-2-furoyl]-L-α-glutamine]",IC50,[1]; Table 1,~6700 nM
"O=C(O)CC[C@H](NC(=O)c1ccc(-c2ccc(NC(=O)c3ccccc3)cc2)cc1)C(=O)O [Example 30, N-{[4′-(benzoylamino)-1,1′-biphenyl-4-yl]carbonyl}-L-α-glutamic acid]",IC50,[1]; Table 1,500 nM
"C=CCOc1ccc(-c2ccc(C(=O)N[C@@H](CCC(=O)O)C(=O)NCc3ccccc3)cc2)cc1 [Example 15E, N^2-{[4′-(allyloxy)-1,1′-biphenyl-4-yl]carbonyl}-N^1-benzyl-L-α-glutamine]",IC50,[1]; Table 1,3500 nM
"Cc1ccc(CNC(=O)[C@H](CCC(=O)O)NC(=O)c2ccc(-c3ccccc3)cc2)cc1 [Example 8III, N^2-(1,1′-biphenyl-4-ylcarbonyl)-N^1-(4-methylbenzyl)-L-α-glutamine]",IC50,[1]; Table 1,120 nM
"COc1cccc(CNC(=O)[C@H](CCC(=O)O)NC(=O)c2ccc(-c3ccccc3)nc2)c1 [Example 22B, N^1-(3-methoxybenzyl)-N^2-[(6-phenylpyridin-3-yl)carbonyl]-L-α-glutamine]",IC50,[1]; Table 1,200 nM
"CC(=O)NCCNC(=O)[C@H](CCC(=O)O)NC(=O)c1ccc(-c2ccccc2)cc1 [Example 8OOOOOO, N^1-[2-(acetylamino)ethyl]-N^2-(1,1′-biphenyl-4-ylcarbonyl)-L-α-glutamine]",IC50,[1]; Table 1,670 nM
"COc1ccc(CCN(C)C(=O)[C@H](CCC(=O)O)NC(=O)c2ccc(-c3ccccc3)cc2)cc1OC [Example 8GGGGGG, N^2-(biphenyl-4-ylcarbonyl)-N-[2-(3,4-dimethoxyphenyl)ethyl]-N-methyl-L-α-glutamine]",IC50,[1]; Table 2,4200 nM
"O=C(O)CC[C@H](NC(=O)c1ccc(-c2ccccc2)cc1Cl)C(=O)NCc1ccccc1 [Example 17YY, N^1-benzyl-N^2-[(3-chloro-1,1′-biphenyl-4-yl)carbonyl]-L-α-glutamine]",IC50,[1]; Table 1,2000 nM
"O=C(O)CC[C@H](NC(=O)c1ccc(-c2ccncc2)cc1)C(=O)NCc1ccccc1 [Example 17VV, N^1-benzyl-N^2-(4-pyridin-4-ylbenzoyl)-L-α-glutamine]",IC50,[1]; Table 1,7900 nM
"COc1ccc(-c2ccccc2)cc1NC(=O)[C@H](CCC(=O)O)NC(=O)c1ccc(-c2ccccc2)cc1 [Example 17BBB, N^2-(1,1′-biphenyl-4-ylcarbonyl)-N^1-(4-methoxy-1,1′-biphenyl-3-yl)-L-α-glutamine]",IC50,[1]; Table 1,900 nM
